23 compounds from patent publication US20240317706A1, “COMPOUNDS THAT MEDIATE PROTEIN DEGRADATION AND METHODS OF USE THEREOF” (Monte Rosa Therapeutics, Inc., priority 2021, published 2024) can be followed below.

For one test, the target named is T1, CDK2 (Homo sapiens, UniProt P24941).
T1 construct: HEK293 clonal lines with CRISPR KI HiBiT tag on CDK2 proteins; host or cells: HEK293 clonal line, CRISPR knock-in HiBiT-CDK2, stably expressing LgBiT
The test is described as follows: NanoBiT assay (CDK2 degradation). The test is classed as cell-based. The following applies: HEK293, HEK293 clonal line with CRISPR KI HiBiT tag on CDK2, Endurazine live cell substrate, 24 hours. In a few lines:
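HEK293 cells with endogenous HiBiT-tagged CDK2 knock-in and stable LgBiT, with Endurazine live-cell substrate; cells were dosed with compound (30 μM stock) for 24 h at 37 °C, then luminescence was read. Response normalised to plate negative/positive controls and fitted to a 3-parameter logistic (hillslope=1) for EC50.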
A general note: HiBiT is a short tag that completes a luciferase, so light tracks the accessible tagged protein.

A further test concerns the target CRBN-DDB1 (Homo sapiens, UniProt Q96SW2). Briefly: Compound binding to CRBN by HTRF assay. The following applies: CRBN-DDB1 2.5 nM, Cy5-Thalidomide 100 nM, 30 min; Ki from geometric mean IC50 by Cheng-Prustoff transformation. Here is the method: Compound activity was monitored in a Homogenous Time-Resolved Fluorescence (HTRF) assay using 1-[5-({2-[2-(2-{[2-(2,6-dioxopiperidin-3-yl)-1,3-dioxo-2,3-dihydro-1H-isoindol-4-yl]oxy}acetamido)ethoxy]ethyl}carbamoyl)pentyl]-3,3-dimethyl-2-[(1E,3E)-5-[(2E)-1,3,3-trimethyl-5-sulfo-2,3-dihydro-1H-indol-2-ylidene]penta-1,3-dien-1-yl]-3H-indol-1-ium-5-sulfonate as a fluorescent probe. Biochemical assays were conducted in Greiner white 384 well HiBase plates (Cat. No 784075-25) in 10 μL total volume. A one pot detection solution of CRBN-DDB1 (2.5 nM), Anti-His Terbium Cryptate Gold (1×, PerkinElmer Cat. #: 61HI2TLB), and Cy5-Thalidomide (100 nM, Tenova Cat.: T52461) was prepared in 20 mM HEPES, 20 mM NaCl, 0.2 mM TCEP, 0.2 mM EDTA, and 0.005% Tween20 was dispensed to each assay plate. Compounds were stored in dry, ambient temperatures at 10 mM. A 10-point, 1:3 dilution series was prepared from 10 mM stock concentrations in Echo-compatible LDV plates. 10 nL of each compound dilution series was dispensed into assays wells using an Echo 650 (Labcyte inc. USA). 10 nL of 10 mM Lenalidomide was transferred into the active-control wells for the assay and 10 nL of DMSO was transferred into the neutral-control wells. The assay was then allowed to incubate for 30 min at ambient temperature after transferring compound. Plate measurements were taken on a Pherastar FSX (BMG Labtech, Germany) using the HTRF Red filter (Ex. 337 nm, em1: 620 nm, em2: 665 nm) (Flashes: 50, Integration time: 60-400 us, Z-height: 10 mm, Ratio-multiplier: 10,000). The HTRF signal was then subsequently normalized to the neutral and active controls. Analysis and IC50 values were derived using KNIME analytics (KNIME Zurich) transformation and fitting within Collaborative Drug Discovery (Collaborative Drug Discovery USA). Ki was derived from the geometric mean of the IC50 values using the Cheng-Prustoff transformation.

Where only a bound is given, the exact number is not on record here.

Sequence of CRBN-DDB1 (Q96SW2 whole entry): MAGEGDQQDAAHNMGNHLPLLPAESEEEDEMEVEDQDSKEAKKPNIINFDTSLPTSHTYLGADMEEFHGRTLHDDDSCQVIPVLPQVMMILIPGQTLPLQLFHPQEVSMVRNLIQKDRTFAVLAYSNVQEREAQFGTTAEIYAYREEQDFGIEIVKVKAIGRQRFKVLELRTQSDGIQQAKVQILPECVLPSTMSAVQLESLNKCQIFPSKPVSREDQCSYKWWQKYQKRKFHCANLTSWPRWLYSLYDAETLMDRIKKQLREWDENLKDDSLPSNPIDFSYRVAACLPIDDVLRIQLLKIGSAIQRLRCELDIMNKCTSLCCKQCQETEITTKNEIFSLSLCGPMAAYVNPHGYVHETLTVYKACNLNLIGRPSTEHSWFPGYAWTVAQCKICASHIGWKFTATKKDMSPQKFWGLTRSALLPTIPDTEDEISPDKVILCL
Sequence of CRBN-DDB1 (Q16531 whole entry partner): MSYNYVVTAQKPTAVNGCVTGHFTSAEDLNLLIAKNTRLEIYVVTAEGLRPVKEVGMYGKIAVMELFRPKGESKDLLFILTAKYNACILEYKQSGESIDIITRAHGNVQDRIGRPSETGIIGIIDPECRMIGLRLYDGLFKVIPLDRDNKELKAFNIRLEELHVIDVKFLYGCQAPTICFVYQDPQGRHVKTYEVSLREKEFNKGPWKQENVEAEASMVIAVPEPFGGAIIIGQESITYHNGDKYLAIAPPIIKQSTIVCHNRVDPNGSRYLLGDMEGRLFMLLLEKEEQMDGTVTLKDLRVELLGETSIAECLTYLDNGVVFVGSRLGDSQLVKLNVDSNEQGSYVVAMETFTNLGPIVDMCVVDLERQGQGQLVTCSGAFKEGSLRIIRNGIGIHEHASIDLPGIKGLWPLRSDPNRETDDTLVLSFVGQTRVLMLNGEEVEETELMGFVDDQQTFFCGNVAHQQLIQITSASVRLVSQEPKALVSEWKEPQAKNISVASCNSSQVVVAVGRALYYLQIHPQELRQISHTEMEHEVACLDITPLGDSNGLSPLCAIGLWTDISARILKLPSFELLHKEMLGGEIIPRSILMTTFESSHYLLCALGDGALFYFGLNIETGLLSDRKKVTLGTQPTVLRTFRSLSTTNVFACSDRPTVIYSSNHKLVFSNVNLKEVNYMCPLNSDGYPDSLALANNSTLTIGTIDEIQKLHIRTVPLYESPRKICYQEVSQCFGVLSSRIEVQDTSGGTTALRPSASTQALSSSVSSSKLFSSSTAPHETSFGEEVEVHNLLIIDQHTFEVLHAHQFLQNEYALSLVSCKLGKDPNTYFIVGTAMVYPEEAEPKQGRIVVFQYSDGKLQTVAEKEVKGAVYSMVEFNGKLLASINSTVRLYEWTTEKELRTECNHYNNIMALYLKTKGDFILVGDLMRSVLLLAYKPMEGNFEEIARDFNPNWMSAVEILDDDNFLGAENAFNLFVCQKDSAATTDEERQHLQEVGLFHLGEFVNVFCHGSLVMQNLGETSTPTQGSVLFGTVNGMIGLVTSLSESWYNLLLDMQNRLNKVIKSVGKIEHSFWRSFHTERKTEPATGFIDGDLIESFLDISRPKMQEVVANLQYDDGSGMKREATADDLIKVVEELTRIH

For orientation: Dmax means the greatest extent of degradation seen. A lower Dmax goes with shallow degradation. As usually defined, the Ki is a dissociation constant, usually derived from enzyme kinetics or from competition with a known ligand. The low end stands for higher affinity, the high end for lower affinity. `O=C1CCC(N2Cc3ccc(CNC(=O)OC(Cc4ccccc4)C4CC5(CCC5)C4)cc3C2=O)C(=O)N1` (stereo not shown) [Compound 109, 2-phenyl-1-(spiro[3.3]heptan-2-yl)ethyl ((2-(2,6-dioxopiperidin-3-yl)-3-oxoisoindolin-5-yl)methyl)carbamate]: the Dmax on CDK2 was in the range of 10 to 50%. The compound also displayed a Ki at CRBN-DDB1 of 100 to 1000 nM.
The like results for `O=C1CCC(N2Cc3ccc(CNc4nnc(C5CC6(CCC6)C5)o4)cc3C2=O)C(=O)N1` (stereo not shown) [Compound 136, 3-(1-oxo-6-(((5-(spiro[3.3]heptan-2-yl)-1,3,4-oxadiazol-2-yl)amino)methyl)isoindolin-2-yl)piperidine-2,6-dione] were, in that order, 50 to 80% and 100 to 1000 nM.
The corresponding values for `O=C1CCC(N2Cc3c(Br)cc(CNc4nnc(C5CC6(CCC6)C5)o4)cc3C2=O)C(=O)N1` (stereo not shown) [Compound 138, 3-(4-bromo-1-oxo-6-(((5-(spiro[3.3]heptan-2-yl)-1,3,4-oxadiazol-2-yl)amino)methyl)isoindolin-2-yl)piperidine-2,6-dione] are 50 to 80% and at most 100 nM.
For `C[C@H]1C[C@H](COC(=O)NCc2ccc3c(c2)C(=O)N(C2CCC(=O)NC2=O)C3)C1` (stereo partly shown) [Compound 119], the maximal degradation (Dmax) at CDK2 lay within 10 to 50%. Further, the Ki at CRBN-DDB1 was in the range of 100 to 1000 nM.
Regarding `O=C1CCC(N2Cc3ccc(CNC(=O)OCC4(C5CC5)CC4)cc3C2=O)C(=O)N1` (stereo not shown) [Compound 77, {[1,1′-bi(cyclopropane)]-1-yl}methyl N-{[2-(2,6-dioxopiperidin-3-yl)-3-oxo-2,3-dihydro-1H-isoindol-5-yl]methyl}carbamate], the Dmax on CDK2 lay within 10 to 50%. In addition, the Ki on CRBN-DDB1 was 100 to 1000 nM.
At CDK2, `CC(C)[C@@H]1C[C@H]1COC(=O)NCc1ccc2c(c1)C(=O)N(C1CCC(=O)NC1=O)C2` (stereo partly drawn) [Compound 116, ((1R,2S)-2-isopropylcyclopropyl)methyl ((2-(2,6-dioxopiperidin-3-yl)-3-oxoisoindolin-5-yl)methyl)carbamate] yielded a Dmax of 10 to 50%. The same compound displayed a Ki on CRBN-DDB1 of 100 to 1000 nM.
In turn, `O=C1CCC(N2Cc3ccc(CNC(=O)OC4CC5(CCCC5)C4)cc3C2=O)C(=O)N1` (stereo not shown) [Compound 121, spiro[3.4]octan-2-yl ((2-(2,6-dioxopiperidin-3-yl)-3-oxoisoindolin-5-yl)methyl)carbamate] showed a Dmax on CDK2 of 10 to 50%. The compound further registered a Ki at CRBN-DDB1 of 100 to 1000 nM.
As to `CC1(COC(=O)NCc2ccc3c(c2)C(=O)N(C2CCC(=O)NC2=O)C3)CS(=O)(=O)C1` (stereo not shown) [Compound 81, (3-methyl-1,1-dioxo-1lambda6-thietan-3-yl)methyl N-{[2-(2,6-dioxopiperidin-3-yl)-3-oxo-2,3-dihydro-1H-isoindol-5-yl]methyl}carbamate], the Dmax at CDK2 lay within 10 to 50%. On CRBN-DDB1, this compound registered an inhibition constant Ki of at most 100 nM.
The corresponding values for `O=C1CCC(N2Cc3ccc(CNC(=S)OCC4CC5(CCC5)C4)cc3C2=O)C(=O)N1` (stereo not shown) [Compound 111, O-(spiro[3.3]heptan-2-ylmethyl) ((2-(2,6-dioxopiperidin-3-yl)-3-oxoisoindolin-5-yl)methyl)carbamothioate] are 10 to 50% and at most 100 nM.
For `O=C1CCC(N2C(=O)c3ccc(CNC(=O)OCC4CC5(CCC5)C4)cc3C2=O)C(=O)N1` (stereo not shown) [Compound 117, spiro[3.3]heptan-2-ylmethyl ((2-(2,6-dioxopiperidin-3-yl)-1,3-dioxoisoindolin-5-yl)methyl)carbamate], the greatest degradation seen (Dmax) on CDK2 was above 80%. The compound further showed a Ki on CRBN-DDB1 of 100 to 1000 nM.
The corresponding values for `O=C1CCC(N2Cc3ccc(CNC(=O)OCC4CC5(CC5)C4)cc3C2=O)C(=O)N1` (stereo not shown) [Compound 126, spiro[2.3]hexan-5-ylmethyl ((2-(2,6-dioxopiperidin-3-yl)-3-oxoisoindolin-5-yl)methyl)carbamate] are 10 to 50% and 100 to 1000 nM.
The like results for `O=C1CCC(N2Cc3ccc(CNC(=O)OCC4CCS(=O)(=O)C4)cc3C2=O)C(=O)N1` (stereo not shown) [Compound 51, (1,1-dioxo-1lambda6-thiolan-3-yl)methyl N-{[2-(2,6-dioxopiperidin-3-yl)-3-oxo-2,3-dihydro-1H-isoindol-5-yl]methyl}carbamate] were, in that order, at most 10% and at most 100 nM.
The like results for `CC(C)(C)C12CC(COC(=O)NCc3ccc4c(c3)C(=O)N(C3CCC(=O)NC3=O)C4)(C1)C2` (stereo not shown) [Compound 131, (3-(tert-butyl)bicyclo[1.1.1]pentan-1-yl)methyl((2-(2,6-dioxopiperidin-3-yl)-3-oxoisoindolin-5-yl)methyl)carbamate] were, in that order, 10 to 50% and 100 to 1000 nM.
For the compound `O=C1CCC(N2Cc3ccc(C4(NC(=O)OCC5CC6(CCC6)C5)CC4)cc3C2=O)C(=O)N1` (stereo not shown) [Compound 118, spiro[3.3]heptan-2-ylmethyl (1-(2-(2,6-dioxopiperidin-3-yl)-3-oxoisoindolin-5-yl)cyclopropyl)carbamate], the Dmax on CDK2 lay within 50 to 80%. Moreover, the Ki on CRBN-DDB1 was 100 to 1000 nM.
The like results for `CC(COC(=O)NCc1ccc2c(c1)C(=O)N(C1CCC(=O)NC1=O)C2)C1CCC1` (stereo not shown) [Compound 58, 2-cyclobutylpropyl N-{[2-(2,6-dioxopiperidin-3-yl)-3-oxo-2,3-dihydro-1H-isoindol-5-yl]methyl}carbamate] were, in that order, at most 10% and at most 100 nM.
The like results for `CC1(C)[C@H]2CC=C(CCOC(=O)NCc3ccc4c(c3)C(=O)N(C3CCC(=O)NC3=O)C4)[C@@H]1C2` (stereo partly drawn) [Compound 129, 2-((1R,5S)-6,6-dimethylbicyclo[3.1.1]hept-2-en-2-yl)ethyl ((2-(2,6-dioxopiperidin-3-yl)-3-oxoisoindolin-5-yl)methyl)carbamate] were, in that order, 10 to 50% and 100 to 1000 nM.
The like results for `O=C1CCC(N2Cc3ccc(CNC(=O)OCC4(CC5CC5)CC4)cc3C2=O)C(=O)N1` (stereo not shown) [Compound 80, [1-(cyclopropylmethyl)cyclopropyl]methyl N-{[2-(2,6-dioxopiperidin-3-yl)-3-oxo-2,3-dihydro-1H-isoindol-5-yl]methyl}carbamate] were, in that order, at most 10% and 100 to 1000 nM.
With `O=C1CCC(N2Cc3c(cc(CNc4nnc(C5CC6(CCC6)C5)o4)cc3C(F)F)C2=O)C(=O)N1` (stereo not shown) [Compound 143, 3-(4-(difluoromethyl)-1-oxo-6-(((5-(spiro[3.3]heptan-2-yl)-1,3,4-oxadiazol-2-yl)amino)methyl)isoindolin-2-yl)piperidine-2,6-dione], the Dmax on CDK2 fell in the range of 10 to 50%. At CRBN-DDB1, this compound gave an inhibitory constant (Ki) of at most 100 nM.
The corresponding values for `O=C1CCC(N2Cc3ccc(CNC(=O)OC[C@@H]4C[C@H]4c4ccccc4)cc3C2=O)C(=O)N1` (stereo partly drawn) [Compound 132, ((1R,2R)-2-phenylcyclopropyl)methyl ((2-(2,6-dioxopiperidin-3-yl)-3-oxoisoindolin-5-yl)methyl)carbamate] are 10 to 50% and 100 to 1000 nM.
The like results for `COc1c(CNC(=O)OCC2CC3(CCC3)C2)ccc2c1C(=O)N(C1CCC(=O)NC1=O)C2` (stereo not shown) [Compound 102, spiro[3.3]heptan-2-ylmethyl ((2-(2,6-dioxopiperidin-3-yl)-4-methoxy-3-oxoisoindolin-5-yl)methyl)carbamate] were, in that order, 10 to 50% and at most 100 nM.
On CDK2, `C[C@H](CC1CC1)OC(=O)NCc1ccc2c(c1)C(=O)N(C1CCC(=O)NC1=O)C2` (stereo partly drawn) [Compound 56, (2R)-1-cyclopropylpropan-2-yl N-{[2-(2,6-dioxopiperidin-3-yl)-3-oxo-2,3-dihydro-1H-isoindol-5-yl]methyl}carbamate] came in with a Dmax of 10 to 50%. This compound also registered a Ki at CRBN-DDB1 of 100 to 1000 nM.
On CDK2, `O=C1CCC(N2Cc3ccc(CNC(=O)OC(CC4CC4)C4CC5(CCC5)C4)cc3C2=O)C(=O)N1` (stereo not shown) [Compound 110, 2-cyclopropyl-1-(spiro[3.3]heptan-2-yl)ethyl ((2-(2,6-dioxopiperidin-3-yl)-3-oxoisoindolin-5-yl)methyl)carbamate] yielded a Dmax of 10 to 50%. In addition, the Ki at CRBN-DDB1 lay within 100 to 1000 nM.
Consider `N#Cc1cc(CNC(=O)OCC2CC3(CCC3)C2)cc2c1CN(C1CCC(=O)NC1=O)C2=O` (stereo not shown) [Compound 106, spiro[3.3]heptan-2-ylmethyl ((7-cyano-2-(2,6-dioxopiperidin-3-yl)-3-oxoisoindolin-5-yl)methyl)carbamate], for which the maximal degradation (Dmax) at CDK2 lay in the range of 50 to 80%. In addition, the Ki on CRBN-DDB1 was in the range of 100 to 1000 nM.
